Experimental data: US11702404B2, “GLP-1R modulating compounds” (priority 2019, dated 2023)
Like-named read-outs stand apart in the source and are kept apart here.

Legend:
[1] = biological target: GLP-1R (Homo sapiens, UniProt P43220); assay: GLP-1R activation: cAMP increase in CHO cells stably expressing GLP-1R; type: cell-based
[2] = Microsomal stability, human liver microsomes (predicted hepatic clearance); details: predicted from in vitro microsomal stability data
[3] = cAMP increase, CHO cells stably expressing GLP-1R, 10 point dose response, 30 minutes incubation, read-out: EC50

GLP-1R, sequence (P43220 24-463): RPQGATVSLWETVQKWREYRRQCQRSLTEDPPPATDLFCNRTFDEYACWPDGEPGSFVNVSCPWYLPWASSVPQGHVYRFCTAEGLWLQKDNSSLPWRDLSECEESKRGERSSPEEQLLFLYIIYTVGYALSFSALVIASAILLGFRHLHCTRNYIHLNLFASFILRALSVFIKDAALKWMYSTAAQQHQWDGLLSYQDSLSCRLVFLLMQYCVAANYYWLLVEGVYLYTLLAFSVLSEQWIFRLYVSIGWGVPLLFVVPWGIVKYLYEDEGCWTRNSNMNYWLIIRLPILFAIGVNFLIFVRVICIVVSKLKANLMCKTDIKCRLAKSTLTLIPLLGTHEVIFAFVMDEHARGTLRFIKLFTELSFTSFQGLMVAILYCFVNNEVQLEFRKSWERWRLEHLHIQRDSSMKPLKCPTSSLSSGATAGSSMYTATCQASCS

| SMILES | EC50 [1, 3] [nM] | Predicted Hepatic Clearance (Pred. Cl.) [2] [mL/min/kg] | EC50 ([1]; read-out: EC50) [nM] | EC50 ([1]; EC50 (nM)) [nM] |
| --- | --- | --- | --- | --- |
| N#Cc1ccc(COc2cccc(-c3ccc(Cc4nc5c(F)cc(C(=O)O)cc5n4C[C@@H](O)CCO)cc3F)n2)c(F)c1 [Example 471, (S)-2-(4-(6-((4-cyano-2-fluorobenzyl)oxy)pyridin-2-yl)-3-fluorobenzyl)-1-(2,4-dihydroxybutyl)-4-fluoro-1H-benzo[d]imidazole-6-carboxylic] | 13.7 | 4 | – | – |
| COCCn1c(Cc2ccc(-c3ccc(F)c(OCc4ccc(Cl)cc4F)c3)cc2F)nc2ccc(C(=O)O)cc21 [Example 472, 2-((3′-((4-chloro-2-fluorobenzyl)oxy)-3,4′-difluoro-[1,1′-biphenyl]-4-yl)methyl)-1-(2-methoxyethyl)-1H-benzo[d]imidazole-6-carboxylic acid] | 20.9 | <1.83 | – | – |
| O=C(O)c1ccc2nc(Cc3ccc(-c4ccc(F)c(OCc5ccc(Cl)cc5F)c4)cc3F)n(CCO)c2c1 [Example 476, 2-[[4-[3-[(4-chloro-2-fluoro-phenyl)methoxy]-4-fluoro-phenyl]-2-fluoro-phenyl]methyl]-3-(2-hydroxyethyl)benzimidazole-5-carboxylic acid] | 366 | 2.17 | – | – |
| COCCn1c(Cc2ccc(-c3cccc(OCc4ccc(Cl)cc4F)n3)cc2F)nc2ccc(C(=O)O)cc21 [Example 478, 2-(4-(6-((4-chloro-2-fluorobenzyl)oxy)pyridin-2-yl)-2-fluorobenzyl)-1-(2-methoxyethyl)-1H-benzo[d]imidazole-6-carboxylic acid] | 9.19 | 3.17 | – | – |
| COCCn1c(Cc2ccc(-c3cccc(OCc4ccc(C(F)(F)F)cc4F)n3)cc2F)nc2ccc(C(=O)O)cc21 [Example 480, 2-[[2-fluoro-4-[6-[[2-fluoro-4-(trifluoromethyl)phenyl]methoxy]-2-pyridyl]phenyl]methyl]-3-(2-methoxyethyl)benzimidazole-5-carboxylic acid] | 6.59 | <1.83 | – | – |
| COCCn1c(Cc2ccc(-c3cccc(OCc4cc(F)c(Cl)cc4OC)n3)cc2F)nc2ccc(C(=O)O)cc21 [Example 481, 2-(4-(6-((4-chloro-5-fluoro-2-methoxybenzyl)oxy)pyridin-2-yl)-2-fluorobenzyl)-1-(2-methoxyethyl)-1H-benzo[d]imidazole-6-carboxylic acid] | 2.9 | <1.83 | – | – |
| CC(=O)N1CC[C@@H]1Cn1c(Cc2ccc(-c3cccc(OCc4ccc(C#N)cc4F)n3)cc2F)nc2ccc(C(=O)O)cc21 [Example 483, (R)-1-((1-acetylazetidin-2-yl)methyl)-2-(4-(6-((4-cyano-2-fluorobenzyl)oxy)pyridin-2-yl)-2-fluorobenzyl)-1H-benzo[d]imidazole-6-carboxylic acid] | – | 2.5 | 3.94 | – |
| N#Cc1ccc(COc2cccc(-c3ccc(Cc4nc5ccc(C(=O)O)cc5n4Cc4ccon4)c(F)c3)n2)c(F)c1 [Example 484, 2-(4-(6-((4-cyano-2-fluorobenzyl)oxy)pyridin-2-yl)-2-fluorobenzyl)-1-(isoxazol-3-ylmethyl)-1H-benzo[d]imidazole-6-carboxylic acid] | 1.06 | 3.45 | – | – |
| CC(=O)NCCn1c(Cc2ccc(-c3cccc(OCc4ccc(C#N)cc4F)n3)cc2F)nc2ccc(C(=O)O)cc21 [Example 485, 1-(2-acetamidoethyl)-2-(4-(6-((4-cyano-2-fluorobenzyl)oxy)pyridin-2-yl)-2-fluorobenzyl)-1H-benzo[d]imidazole-6-carboxylic acid] | – | 3.67 | 103 | – |
| N#Cc1ccc(COc2cccc(-c3cc(F)c(Cc4nc5ccc(C(=O)O)cc5n4Cc4ccon4)cc3F)n2)c(F)c1 [Example 486, 2-(4-(6-((4-cyano-2-fluorobenzyl)oxy)pyridin-2-yl)-2,5-difluorobenzyl)-1-(isoxazol-3-ylmethyl)-1H-benzo[d]imidazole-6-carboxylic acid] | 1.05 | 5 | – | – |
| COCCn1c(Cc2ccc(-c3cccc(OCc4ccc(C(F)(F)F)nc4F)n3)cc2F)nc2ccc(C(=O)O)cc21 [Example 487, 2-(2-fluoro-4-(6-((2-fluoro-6-(trifluoromethyl)pyridin-3-yl)methoxy)pyridin-2-yl)benzyl)-1-(2-methoxyethyl)-1H-benzo[d]imidazole-6-carboxylic acid] | 100 | 5.33 | – | – |
| CC(=O)N1CCC[C@H](Cn2c(Cc3ccc(-c4cccc(OCc5ccc(C#N)cc5F)n4)cc3F)nc3ccc(C(=O)O)cc32)C1 [Example 488, (R)-1-((1-acetylpiperidin-3-yl)methyl)-2-(4-(6-((4-cyano-2-fluorobenzyl)oxy)pyridin-2-yl)-2-fluorobenzyl)-1H-benzo[d]imidazole-6-carboxylic acid] | 1090 | 10 | – | – |
| Cc1conc1Cn1c(Cc2ccc(-c3cccc(OCc4ccc(C#N)cc4F)n3)cc2F)nc2ccc(C(=O)O)cc21 [Example 490, 2-(4-(6-((4-cyano-2-fluorobenzyl)oxy)pyridin-2-yl)-2-fluorobenzyl)-1-((4-methylisoxazol-3-yl)methyl)-1H-benzo[d]imidazole-6-carboxylic acid] | 5.53 | 3.67 | – | – |
| N#Cc1ccc(COc2cccc(-c3ccc(Cc4nc5ccc(C(=O)O)cc5n4Cc4cn[nH]c4)c(F)c3)n2)c(F)c1 [Example 491, 1-((1H-pyrazol-4-yl)methyl)-2-(4-(6-((4-cyano-2-fluorobenzyl)oxy)pyridin-2-yl)-2-fluorobenzyl)-1H-benzo[d]imidazole-6-carboxylic acid] | 19.4 | 12.7 | – | – |
| N#Cc1ccc(COc2cccc(-c3ccc(Cc4nc5c(F)cc(C(=O)O)cc5n4C[C@@H]4CCO4)cc3F)n2)c(F)c1 [Example 492, (S)-2-(4-(6-((4-cyano-2-fluorobenzyl)oxy)pyridin-2-yl)-3-fluorobenzyl)-4-fluoro-1-(oxetan-2-ylmethyl)-1H-benzo[d]imidazole-6-carboxylic acid] | 5.16 | <1.83 | – | – |
| COCCn1c(Cc2ccc(-c3cccc(OCc4nccnc4OC)n3)cc2F)nc2ccc(C(=O)O)cc21 [Example 493, 2-(2-fluoro-4-(6-((3-methoxypyrazin-2-yl)methoxy)pyridin-2-yl)benzyl)-1-(2-methoxyethyl)-1H-benzo[d]imidazole-6-carboxylic acid] | 255 | 19.2 | – | – |
| COCCn1c(Cc2ccc(-c3cccc(O[C@@H](C)c4ccccc4)n3)cc2F)nc2ccc(C(=O)O)cc21 [Example 494, (S)-2-(2-fluoro-4-(6-(1-phenylethoxy)pyridin-2-yl)benzyl)-1-(2-methoxyethyl)-1H-benzo[d]imidazole-6-carboxylic acid] | 4550 | 13.2 | – | – |
| COCCn1c(Cc2ccc(-c3cccc(OCc4cccc(S(C)(=O)=O)c4)n3)cc2F)nc2ccc(C(=O)O)cc21 [Example 495, 2-(2-fluoro-4-(6-((3-(methylsulfonyl)benzyl)oxy)pyridin-2-yl)benzyl)-1-(2-methoxyethyl)-1H-benzo[d]imidazole-6-carboxylic acid] | 777 | 5.83 | – | – |
| COCCn1c(Cc2ccc(-c3cccc(OCc4ccccc4COC)n3)cc2F)nc2ccc(C(=O)O)cc21 [Example 496, 2-(2-fluoro-4-(6-((2-(methoxymethyl)benzyl)oxy)pyridin-2-yl)benzyl)-1-(2-methoxyethyl)-1H-benzo[d]imidazole-6-carboxylic acid] | 2000 | 18.2 | – | – |
| COCCn1c(Cc2ccc(-c3cccc(OCc4cccc(C#N)c4)n3)cc2F)nc2ccc(C(=O)O)cc21 [Example 497, 2-(4-(6-((3-cyanobenzyl)oxy)pyridin-2-yl)-2-fluorobenzyl)-1-(2-methoxyethyl)-1H-benzo[d]imidazole-6-carboxylic acid] | 1350 | 5.33 | – | – |
| COCCn1c(Cc2ccc(-c3cccc(OCc4ccc(C#N)cc4)n3)cc2F)nc2ccc(C(=O)O)cc21 [Example 499, 2-(4-(6-((4-cyanobenzyl)oxy)pyridin-2-yl)-2-fluorobenzyl)-1-(2-methoxyethyl)-1H-benzo[d]imidazole-6-carboxylic acid] | – | 3.5 | – | 8.18 |
| COCCn1c(Cc2ccc(-c3cccc(OCc4ccccc4-c4ccccc4)n3)cc2F)nc2ccc(C(=O)O)cc21 [Example 500, 2-(4-(6-([1,1′-biphenyl]-2-ylmethoxy)pyridin-2-yl)-2-fluorobenzyl)-1-(2-methoxyethyl)-1H-benzo[d]imidazole-6-carboxylic acid] | 474 | 9.67 | – | – |
| COCCn1c(Cc2ccc(-c3cccc(OCc4ccccc4)n3)cc2F)nc2ccc(C(=O)O)cc21 [Example 501, 2-(4-(6-(benzyloxy)pyridin-2-yl)-2-fluorobenzyl)-1-(2-methoxyethyl)-1H-benzo[d]imidazole-6-carboxylic acid] | 102 | 11.5 | – | – |
| COCCn1c(Cc2ccc(-c3cccc(OCn4ccc(C(N)=O)cc4=O)n3)cc2F)nc2ccc(C(=O)O)cc21 [Example 502, 2-(4-(6-((4-carbamoyl-2-oxopyridin-1(2H)-yl)methoxy)pyridin-2-yl)-2-fluorobenzyl)-1-(2-methoxyethyl)-1H-benzo[d]imidazole-6-carboxylic acid] | 2380 | 2.67 | – | – |
| COCCn1c(Cc2ccc(-c3cccc(OCc4cccc(-c5ccccc5)c4)n3)cc2F)nc2ccc(C(=O)O)cc21 [Example 504, 2-(4-(6-([1,1′-biphenyl]-3-ylmethoxy)pyridin-2-yl)-2-fluorobenzyl)-1-(2-methoxyethyl)-1H-benzo[d]imidazole-6-carboxylic acid] | 28.5 | 3.5 | – | – |
